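Cultured in 96-well plates, cells were exposed to test compound for 48 hours across five concentrations. GI50 marks 50% less growth. At the TGI there is no net growth.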
What was measured:
Assay in all cases: NCI tumour cell line growth inhibition, 48 h
COLO 205 colon = tested on: COLO 205 colon
HCT-15 colon = tested on: HCT-15 colon
LOX IMVI melanoma = tested on: LOX IMVI melanoma
MALME-3M melanoma = tested on: MALME-3M melanoma
OVCAR-3 ovarian = tested on: OVCAR-3 ovarian
RXF 393 renal = tested on: RXF 393 renal
SF-295 CNS = tested on: SF-295 CNS
SK-MEL-2 melanoma = tested on: SK-MEL-2 melanoma
SNB-75 CNS = tested on: SNB-75 CNS
PC-3 prostate = tested on: PC-3 prostate

| Structure (SMILES) | TGI (COLO 205 colon) [µM] | TGI (HCT-15 colon) [µM] | TGI (LOX IMVI melanoma) [µM] | TGI (MALME-3M melanoma) [µM] | TGI (OVCAR-3 ovarian) [µM] | TGI (RXF 393 renal) [µM] | TGI (SF-295 CNS) [µM] | TGI (SK-MEL-2 melanoma) [µM] | TGI (SNB-75 CNS) [µM] | TGI (PC-3 prostate) [µM] | GI50 (COLO 205 colon) [µM] | GI50 (LOX IMVI melanoma) [µM] | GI50 (MALME-3M melanoma) [µM] | GI50 (OVCAR-3 ovarian) [µM] | GI50 (RXF 393 renal) [µM] | GI50 (SF-295 CNS) [µM] | GI50 (HCT-15 colon) [µM] | GI50 (PC-3 prostate) [µM] | GI50 (SK-MEL-2 melanoma) [µM] | GI50 (SNB-75 CNS) [µM] |
| --- | --- | --- | --- | --- | --- | --- | --- | --- | --- | --- | --- | --- | --- | --- | --- | --- | --- | --- | --- | --- |
| c1cncc(C2c3[nH]c4ccccc4c3CCN2CCCN2CCCCC2)c1 (stereo not drawn) | > 100 | > 100 | > 100 | 92.5 | > 100 | > 100 | > 100 | > 100 | > 100 |  |  |  |  |  |  |  |  |  |  |  |
| CC(C)C1C(=O)N2CCCC2C2(O)OC(NC(=O)C3C=C4c5cccc6[nH]cc(c56)CC4N(C)C3)(C(C)C)C(=O)N12 (stereo not drawn) | 51.5 | 54.9 | 34.8 |  | 80.6 |  | 64.4 | 42.4 | 76.7 | 87.3 |  |  |  |  |  |  |  |  |  |  |
| CC1=CC(=O)C(C)(C2=NC(C)(C)CO2)c2ccccc21 (stereo not drawn) | > 100 | > 100 |  | > 100 | > 100 | > 100 | > 100 | > 100 | > 100 |  |  |  |  |  |  |  |  |  |  |  |
| CC[O-].CC[O-].[O-]c1ccccc1C=Nc1ccccc1.[O-]c1ccccc1C=Nc1ccccc1.[Ti+4] | > 100 |  | > 100 | > 100 | > 100 | > 100 | > 100 |  |  |  | 96.8 | 1.92 | > 100 | > 100 | > 100 | > 100 |  |  |  |  |
| CCOC(=O)C1Cc2c(ccc(OC)c2OC)C(=O)C1N (stereo not drawn) | > 100 | > 100 | > 100 | > 100 | > 100 | > 100 | > 100 | > 100 | > 100 |  |  |  |  |  |  |  |  |  |  |  |
| CC(=O)CC(=O)N(CCN(C(=O)CC(C)=O)c1ccccc1)c1ccccc1 | > 100 |  | > 100 | > 100 | > 100 | > 100 | > 100 | > 100 | > 100 |  |  |  |  |  |  |  |  |  |  |  |
| CN1C(=O)n2c(nc3ccccc32)C(N=[N+]=[N-])(N=[N+]=[N-])C1=O (stereo not drawn) | > 100 | > 100 | > 100 | > 100 | > 100 | > 100 | > 100 | > 100 | > 100 |  |  |  |  |  |  |  |  |  |  |  |
| CCc1ccc(C2=C/C(=C/c3ccc(Cl)cc3)C(=O)N2CCc2ccc(S(N)(=O)=O)cc2)cc1 | 3.54 | 12.9 |  | 5.19 | 4.6 | 3.79 | 3.72 | 7.76 | 12.9 | 5.36 | 1.78 |  | 1.96 | 2.12 | 1.74 | 1.77 | 2.98 | 1.9 | 2.27 | 2.79 |
| O=C1c2ccccc2C(=O)N1/N=C\c1ccc(Br)cc1 | > 100 | > 100 | > 10 | > 100 | > 100 | > 10 | > 100 | > 100 | > 100 |  |  |  | > 100 | > 100 |  | > 100 | > 100 |  | > 100 | > 100 |
| CCOC(=O)C12CCCC1(O)N(NC(=O)c1cccc(Cl)c1)C(C)=C2C(=O)OC (stereo not drawn) |  | > 100 | > 100 | > 100 | > 100 | > 100 | > 100 | > 100 | > 100 |  |  |  |  |  |  |  |  |  |  |  |
| CCC[CH2][Sn]1([CH2]CCC)[O]C(c2ccccn2)S(=O)(=O)[O]1 (stereo not drawn) | 4.54 | 3.5 | 3.07 | 3.27 | 11.6 | 3.95 | 8.26 | 3.22 | 7.26 |  | 2.1 | 1.64 | 1.63 | 3.06 | 2.36 | 2.94 | 1.79 |  | 1.7 | 2.53 |
| COc1cccc(/C=C(/C(=O)O)c2cc(OC)c(OC)c(OC)c2)c1 | > 100 | > 100 | > 100 | > 100 | > 100 | > 100 | > 100 |  | > 100 |  |  |  |  |  |  |  |  |  |  |  |
| CC1(C)CCC(=O)c2c(O)ccc(O)c21 | > 100 | > 100 |  | > 100 | > 100 | 77.7 | > 100 | > 100 | 98.3 |  |  |  |  |  |  |  |  |  |  |  |
| CSc1nc(NC2OCC(OC(C)=O)C(OC(C)=O)C2OC(C)=O)c(N=CC=Nc2c(NC3OCC(OC(C)=O)C(OC(C)=O)C3OC(C)=O)nc(SC)n(C)c2=O)c(=O)n1C (stereo not drawn) | > 100 | > 100 | > 100 | > 100 | > 100 | > 100 | > 100 | > 100 | > 100 |  |  |  |  |  |  |  |  |  |  |  |
| CC(=O)[CH-]C(=O)c1ccccc1.CC(=O)[CH-]C(=O)c1ccccc1.O=C([O-])C[O-].O=C([O-])C[O-].[Ti+4] |  | > 100 | > 100 | > 100 | > 100 |  | > 100 | > 100 | 56.7 |  |  | 41.2 | 34.3 | 42.7 |  | 50.7 | 30.9 |  | 30.5 | 18.6 |
| Nn1c(CCCl)nc2c(Br)cc(Br)cc2c1=O | 54.1 | 55.1 | 78.6 | > 100 | 39.8 | > 100 | > 100 | > 90.9 | 91.5 |  |  |  |  |  |  |  |  |  |  |  |
| CCOC(=O)/C(=C/c1ccc(OC)c(OC)c1)C(=O)c1ccccc1 | 31.1 | 42 |  | > 100 | 33.6 |  | 46.9 | > 100 | 28.5 |  |  |  |  |  |  |  |  |  |  |  |
| COc1ccc(NC(=O)C(=O)C(CC2C(=O)NC(=S)NC2=O)C(=O)c2ccc3ccccc3c2)c([N+](=O)[O-])c1 (stereo not drawn) | > 100 | > 100 | > 100 |  | > 100 |  | > 100 | > 100 | > 100 | > 100 |  |  |  |  |  |  |  |  |  |  |
| C/C(CC(=O)CCCC(=O)Nc1ccc(Cl)cc1Cl)=N/NC(=O)CC#N | > 100 | > 100 | > 100 | > 100 | > 100 | > 100 | > 100 | > 100 | > 100 |  |  |  |  |  |  |  |  |  |  |  |
| Cc1cc(C)c(C(=O)O)c(N)c1O | > 100 | > 100 | > 100 | > 100 | > 100 | > 100 | > 100 | > 100 | > 100 |  |  |  |  |  |  |  |  |  |  |  |
